Test results from ChEMBL document CHEMBL2331547, “o-Benzenedisulfonimido-sulfonamides are potent inhibitors of the tumor-associated carbonic anhydrase isoforms CA IX and CA XII” (Bioorg Med Chem, 2013).

Target: Carbonic anhydrase 9 (Homo sapiens, UniProt Q16790)
Experiment: Inhibition of human recombinant carbonic anhydrase-9-mediated CO2 hydration preincubated for 10 mins by stopped-flow assay

NS(=O)(=O)c1ccccc1N1S(=O)(=O)c2ccccc2S1(=O)=O
Ki: 66.9 nM

NS(=O)(=O)c1ccc(N2S(=O)(=O)c3ccccc3S2(=O)=O)cc1
Ki: 82.5 nM

NS(=O)(=O)c1ccc(N2S(=O)(=O)c3ccccc3S2(=O)=O)c(Cl)c1
Ki: 17.1 nM

NS(=O)(=O)c1ccc(CN2S(=O)(=O)c3ccccc3S2(=O)=O)cc1
Ki: 49.8 nM

NS(=O)(=O)c1ccc(CCN2S(=O)(=O)c3ccccc3S2(=O)=O)cc1
Ki: 86 nM

NS(=O)(=O)c1cccc(N2S(=O)(=O)c3ccccc3S2(=O)=O)c1
Ki: 32.2 nM
